The values that follow come from patent US11298363B2, “Triazolobenzazepines as vasopressin V1a receptor antagonists” (RICHTER GEDEON NYRT., priority 2017, dated 2022).

What is called Ki is the dissociation constant of the complex between target and ligand, obtained from inhibition or displacement. The term IC50 denotes the midpoint of a concentration-inhibition curve.

The target in assay [1] is T1, human vasopressin V1a receptor (Homo sapiens, UniProt P37288). As to the kind of experiment: Human vasopressin V1a receptor binding assay. As to conditions: 1321N1 cell membranes, [3H]vasopressin; read-out: Ki (nM) on hV1a cell line. The procedure, abridged:
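Radioligand competition on membranes from cells expressing human V1a receptor; incubation 60 minutes at 27° C., non-specific binding with 1.2×10^−6 M unlabeled (Arg^8)-vasopressin, filtration separation. Ki by Cheng-Prusoff using Scatchard-derived KD, from at least two independent experiments.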

A further assay concerns the target mouse V1a receptor (Mus musculus, UniProt Q62463). Description: Functional V1a in vivo test: inhibition of oxytocin-induced scratching behaviour. Particulars: mice, 10 mg/kg p.o. pretreatment. As for the experimental part:
Functional V1a In Vivo Test
Male mice (NMRI, ToxiCoop) weighing 18-40 g were used. Animals were kept at least 5 days after delivery, during housing and measurements they were fed and drink ad libitum. The experiments were permitted by the Local Animal Protection Committee and carried out in accordance with the European Animal Protection Directives (EU Directive 2010/63/EU).
Animal behaviour was measured by an automated behavioral analysis system (LABORAS™). The sensors located below platforms detect the mechanical vibration generated by the movement of animal, and transform into an electrical signal (Quinn et al., J Neurosci Methods 2003, 130:83-92). After analyzing signals, the system analyzes the time spent with the following behavioral parameters: locomotion, immobility, climbing, grooming. The grooming algorithm by definition is able to measure the scratching behavioral response. During the experiment, mice were pretreated with the test substance or vehicle, and after the pretreatment period scratching-inducing compound (s.c. 0.3 mg/kg oxytocin) was administered, and then the animals were individually placed into measuring cages. […] To reduce the exploratory activity, the animals were measured after a 1-hour habituation to the cage. The behavioural parameters were compared to the parallel measured parameters of the control animals.
The behavioural inhibitory effect of the substances was calculated with average values of parallel measured vehicle treated groups and presented as the percentage of inhibition: 0% was expressed as average value of scratching behaviour of vehicle pretreated animals (and phys. saline s.c. pretreated with vehicle), while 100% was expressed as average value of scratching of vehicle pretreated animals that received oxytocin subcutaneously. For statistical analysis one-way analysis of variance (ANOVA) with Tukey post hoc test were used.

In assay [2] the target is T1, human vasopressin V1a receptor. As to the kind of experiment: Functional assay on human vasopressin V1a receptor expressing cell line (intracellular Ca2+ fluorescence). Type of assay: cell-based. As to conditions: 1321N1 cells, (Arg8)-vasopressin at EC80; read-out: IC50 (nM) on hV1a cell line.

T1 sequence (P37288 whole entry): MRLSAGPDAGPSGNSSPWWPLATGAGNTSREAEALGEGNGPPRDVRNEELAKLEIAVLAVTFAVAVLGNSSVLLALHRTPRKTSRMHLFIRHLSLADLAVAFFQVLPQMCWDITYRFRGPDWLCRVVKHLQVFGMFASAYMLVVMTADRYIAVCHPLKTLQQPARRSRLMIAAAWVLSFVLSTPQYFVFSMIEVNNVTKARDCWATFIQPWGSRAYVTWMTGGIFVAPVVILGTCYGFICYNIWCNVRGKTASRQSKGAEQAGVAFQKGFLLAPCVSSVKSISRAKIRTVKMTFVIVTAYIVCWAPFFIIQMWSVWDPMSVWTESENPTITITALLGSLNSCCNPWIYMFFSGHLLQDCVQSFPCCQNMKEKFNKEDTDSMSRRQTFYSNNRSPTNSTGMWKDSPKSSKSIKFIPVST
mouse V1a receptor, sequence (Q62463 whole entry): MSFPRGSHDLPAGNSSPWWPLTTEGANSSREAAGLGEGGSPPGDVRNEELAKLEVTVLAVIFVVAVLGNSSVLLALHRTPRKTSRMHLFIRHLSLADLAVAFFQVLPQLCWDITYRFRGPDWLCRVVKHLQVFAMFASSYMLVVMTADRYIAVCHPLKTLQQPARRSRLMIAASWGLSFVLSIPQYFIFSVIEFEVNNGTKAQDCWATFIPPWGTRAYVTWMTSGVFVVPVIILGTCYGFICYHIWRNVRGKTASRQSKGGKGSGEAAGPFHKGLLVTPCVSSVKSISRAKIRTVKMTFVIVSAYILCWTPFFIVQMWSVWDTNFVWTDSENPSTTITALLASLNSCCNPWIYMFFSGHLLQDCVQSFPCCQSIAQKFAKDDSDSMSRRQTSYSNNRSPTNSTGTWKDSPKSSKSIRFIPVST

With `COC1Cc2cc(Cl)ccc2-n2c(nnc2[C@H]2CC[C@H](Oc3ccccn3)CC2)C1` (mixture of isomers) [Example 58, 8-chloro-5-methoxy-1-[trans-4-(pyridin-2-yloxy)cyclohexyl]-5,6-dihydro-4H-[1,2,4]triazolo[4,3-a][1]benzazepine], the Ki in assay [1] is 0.3 nM. The “inhibition (%) of oxytocin-induced scratching behaviour response” value on mouse V1a receptor was 96%. For the same compound, in assay [2], the IC50 came out at 1.4 nM.
`COC1Cc2cc(Cl)ccc2-n2c(nnc2[C@H]2CC[C@H](C(F)(F)F)CC2)C1` (mixture of isomers) [Example 74, 8-chloro-5-methoxy-1-[trans-4-(trifluoromethyl)cyclohexyl]-5,6-dihydro-4H-[1,2,4]triazolo[4,3-a][1]benzazepine]: the Ki in assay [1] worked out at 4 nM. Moreover, the “inhibition (%) of oxytocin-induced scratching behaviour response” value on mouse V1a receptor was 30%. Also, the IC50 in assay [2] was 2.6 nM.
The like results for `CO[C@H]1Cc2cc(Cl)ccc2-n2c(nnc2[C@H]2CC[C@H](Oc3ccccn3)CC2)C1` (single isomer, unassigned) [Example 103] were, in that order, 0.2 nM, 71% and 0.7 nM.
The like results for `CO[C@@H]1Cc2cc(Cl)ccc2-n2c(nnc2[C@H]2CC[C@H](Oc3ccccn3)CC2)C1` (single isomer, unassigned) [Example 104] were, in that order, 0.2 nM, 67% and 0.6 nM.
With `CCO[C@]1(C)CC[C@@H](c2nnc3n2-c2ccc(Cl)cc2CC(N(C)C)C3)CC1` (stereo partly drawn) [Example 234, 8-chloro-1-(trans-4-ethoxy-4-methylcyclohexyl)-N,N-dimethyl-5,6-dihydro-4H-[1,2,4]triazolo[4,3-a][1]benzazepin-5-amine], the Ki in assay [1] amounted to 3.8 nM. Moreover, in assay [2], the IC50 stood at 57 nM.
As to `CO[C@]1(C(F)(F)F)CC[C@@H](c2nnc3n2-c2ccc(Cl)cc2CC2(C3)OCCO2)CC1` [Example 235, 8′-chloro-1′-[trans-4-methoxy-4-(trifluoromethyl)cyclohexyl]-4′H,6′H-spiro[1,3-dioxolane-2,5′-[1,2,4]triazolo[4,3-a][1]benzazepine]], the Ki in assay [1] was found to be 0.3 nM. Also, the IC50 in assay [2] was 22 nM.
The like results for `CO[C@]1(C(F)(F)F)CC[C@H](c2nnc3n2-c2ccc(Cl)cc2CC2(C3)OCCO2)CC1` [Example 236, 8′-chloro-1′-[cis-4-methoxy-4-(trifluoromethyl)cyclohexyl]-4′H,6′H-spiro[1,3-dioxolane-2,5′-[1,2,4]triazolo[4,3-a][1]benzazepine]] were, in that order, 0.9 nM and 4.2 nM.
The matching figures for `CCO[C@]1(C)CC[C@@H](c2nnc3n2-c2ccc(Cl)cc2CC2(C3)OCCO2)CC1` [Example 237, 8′-chloro-1′-(trans-4-ethoxy-4-methylcyclohexyl)-4′H,6′H-spiro[1,3-dioxolane-2,5-[1,2,4]triazolo[4,3-a][1]benzazepine]]: 0.2 nM and 1.5 nM.
The like results for `CCC[C@]1(OCC)CC[C@H](c2nnc3n2-c2ccc(Cl)cc2CC2(C3)OCCO2)CC1` [Example 238, 8′-chloro-1′-(trans-4-ethoxy-4-propylcyclohexyl)-4′H,6′-spiro[1,3-dioxolane-2,5′-[1,2,4]triazolo[4,3-a][1]benzazepine]] were, in that order, 0.7 nM and 8.2 nM.
As for `Clc1ccc2c(c1)CC1(Cc3nnc(C4CCN(Cc5ccccn5)C4)n3-2)OCCO1` (stereo not shown) [Example 239, 8′-chloro-1′-[1-(pyridin-2-ylmethyl)pyrrolidin-3-yl]-4′H,6′H-spiro[1,3-dioxolane-2,5′-[1,2,4]triazolo[4,3-a][1]benzazepine]], in assay [1], the Ki was determined as 1.2 nM. In addition, the IC50 in assay [2] is 5.6 nM.
The like results for `CC[C@]1(OC)CC[C@@H](c2nnc3n2-c2ccc(Cl)cc2CC2(C3)OCCO2)CC1` [Example 240, 8′-chloro-1′-(cis-4-ethyl-4-methoxycyclohexyl)-4′H,6′H-spiro[1,3-dioxolane-2,5′-[1,2,4]triazolo[4,3-a][1]benzazepine]] were, in that order, 0.5 nM and 3.1 nM.
The matching figures for `CC[C@]1(OC)CC[C@H](c2nnc3n2-c2ccc(Cl)cc2CC2(C3)OCCO2)CC1` [Example 241, 8′-chloro-1′-(trans-4-ethyl-4-methoxycyclohexyl)-4′H,6′H-spiro[1,3-dioxolane-2,5′-[1,2,4]triazolo[4,3-a][1]benzazepine]]: 0.4 nM and 2.6 nM.
The like results for `CCC[C@]1(OC)CC[C@H](c2nnc3n2-c2ccc(Cl)cc2CC2(C3)OCCO2)CC1` [Example 242, 8′-chloro-1′-(trans-4-methoxy-4-propylcyclohexyl)-4′H,6′H-spiro[1,3-dioxolane-2,5′-[1,2,4]triazolo 4,3a][1]benzoepin] were, in that order, 0.5 nM and 1.8 nM.
As to `CCC[C@]1(OC)CC[C@@H](c2nnc3n2-c2ccc(Cl)cc2CC2(C3)OCCO2)CC1` [Example 243, 8′-chloro-1′-(cis-4-methoxy-4-propylcyclohexyl)-4′H,6′H-spiro[1,3-dioxolane-2,5-[1,2,4]triazolo[4,3-a][1]benzazepine]], in assay [1], the Ki stood at 0.4 nM. The IC50 in assay [2] was found to be 2.8 nM.
The matching figures for `CCO[C@]1(CC)CC[C@@H](c2nnc3n2-c2ccc(Cl)cc2CC(NC(C)C)C3)CC1` (stereo partly drawn) [Example 244, 8-chloro-1-(trans-4-ethoxy-4-ethylcyclohexyl)-N-(propan-2-yl)-5,6-dihydro-4H-[1,2,4]triazolo[4,3-a][1]benzazepin-5-amine]: 25 nM and 263 nM.
The matching figures for `CCO[C@]1(CC)CC[C@@H](c2nnc3n2-c2ccc(Cl)cc2CC(N(C)C)C3)CC1` (stereo partly drawn) [Example 245, 8-chloro-1-(trans-4-ethoxy-4-ethylcyclohexyl)-N,N-dimethyl-5,6-dihydro-4H-[1,2,4]triazolo[4,3-a][1]benzazepin-5-amine]: 7 nM and 130 nM.
The matching figures for `Clc1ccc2c(c1)CC1(Cc3nnc([C@@H]4CCN(Cc5ccccn5)C4)n3-2)OCCO1` [Example 246, 8′-chloro-1′-[(3R)-1-(pyridin-2-ylmethyl)pyrrolidin-3-yl]-4′H,6′H-spiro[1,3-dioxolane-2,5′-[1,2,4]triazolo[4,3-a][1]benzazepine]]: 0.5 nM and 3.4 nM.
Turning to `COC1Cc2cc(Cl)ccc2-n2c(nnc2[C@@H]2CCN(Cc3cccnc3)C2)C1` (stereo partly shown) [Example 247], the Ki in assay [1] was found to be 5 nM. Besides, the IC50 in assay [2] worked out at 30 nM.
The matching figures for `COC1Cc2cc(Cl)ccc2-n2c(nnc2[C@@H]2CCN(Cc3ccccn3)C2)C1` (stereo partly drawn) [Example 248, 8-chloro-5-methoxy-1-[(3R)-1-(pyridin-2-ylmethyl)pyrrolidin-3-yl]-5,6-dihydro-4H-[1,2,4]triazolo[4,3-a][1]benzazepine]: 2.3 nM and 22 nM.
Take `Clc1ccc2c(c1)CC1(Cc3nnc([C@H]4CCN(Cc5cccnc5)C4)n3-2)OCCO1` [Example 249, 8′-chloro-1-[(3S)-1-(pyridin-3-ylmethyl)pyrrolidin-3-yl]-4′H,6′H-spiro[1,3-dioxolane-2,5′-[1,2,4]triazolo[4,3-a][1]benzazepine]]: the Ki in assay [1] came to 0.8 nM. Moreover, the IC50 in assay [2] was found to be 7 nM.
The matching figures for `Clc1ccc2c(c1)CC1(Cc3nnc([C@@H]4CCN(Cc5cccnc5)C4)n3-2)OCCO1` [Example 250, 8′-chloro-1′-[(3R)-1-(pyridin-3-ylmethyl)pyrrolidin-3-yl]-4′H, 6′H-spiro[1,3-dioxolane-2,5′-[1,2,4]triazolo[4,3-a][1]benzazepine]]: 2.9 nM and 27 nM.
The matching figures for `COC1Cc2cc(Cl)ccc2-n2c(nnc2[C@H]2CCN(Cc3cccnc3)C2)C1` (stereo partly drawn) [Example 251, 8-chloro-5-methoxy-1-[(3S)-1-(pyridin-3-ylmethyl)pyrrolidin-3-yl]-5,6-dihydro-4H-[1,2,4]triazolo[4,3-a][1]benzazepine]: 18.5 nM and 152 nM.
The like results for `Clc1ccc2c(c1)CC1(Cc3nnc([C@H]4CCN(Cc5ccccn5)C4)n3-2)OCCO1` [Example 252, 8′-chloro-1′-[(3S)-1-(pyridin-2-ylmethyl)pyrrolidin-3-yl]-4′H,6′H-spiro[1,3-dioxolane-2,5′-[1,2,4]triazolo[4,3-a][1]benzazepine]] were, in that order, 0.7 nM and 8.2 nM.
As for `COC1Cc2cc(Cl)ccc2-n2c(nnc2[C@H]2CCN(Cc3ccccn3)C2)C1` (stereo partly drawn) [Example 253, 8-chloro-5-methoxy-1-[(3S)-1-(pyridin-2-ylmethyl)pyrrolidin-3-yl]-5,6-dihydro-4H-[1,2,4]triazolo[4,3-a][1]benzazepine], the Ki in assay [1] was 5 nM. In assay [2], the IC50 came to 66 nM.
